Where “and” joins values, the source holds several entries; their conditions need not be identical. Identical values can stand only once. Records with an inconclusive call do not appear.
Test system: Lewis lung carcinoma i.m., BDF1 mice, T/C %
Assay: NCI In Vivo Anticancer Drug Screen. Data for tumor model Lewis Lung Carcinoma (intramuscular) in B6D2F1 (BDF1) mice
Summary of the method: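 Antitumour activity is assessed in transplanted-tumour mice. Endpoint is survival or tumour size, normalised to vehicle-dosed controls (T/C).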

[1] = endpoint: mean tumor weight (est.), dose: 12.5 mg/kg/injection, schedule: Q01DX011 (ip), vehicle: saline with Tween-80, higher = larger tumour
[2] = endpoint: median survival time, dose: 25.0 mg/kg/injection, schedule: Q01DX011 (ip), vehicle: saline, higher = longer survival
[3] = endpoint: median survival time, dose: 50.0 mg/kg/injection, schedule: Q01DX011 (ip), vehicle: saline, higher = longer survival
[4] = endpoint: median survival time, dose: 100.0 mg/kg/injection, schedule: Q01DX011 (ip), vehicle: saline, higher = longer survival

CN(C)/N=N/c1nc[nH]c1C(N)=O
T/C (endpoint: mean tumor weight, dose: 50.0 mg/kg/injection, schedule: Q01DX011 (ip), vehicle: steriod suspending solution, higher = larger tumour): 63 % of control
T/C (endpoint: mean tumor weight, dose: 100.0 mg/kg/injection, schedule: Q01DX011 (ip), vehicle: steriod suspending solution, higher = larger tumour): 62 % of control
T/C (endpoint: mean tumor weight, dose: 200.0 mg/kg/injection, schedule: Q01DX011 (ip), vehicle: steriod suspending solution, higher = larger tumour): 44 % of control
T/C (endpoint: median survival time, dose: 23.0 mg/kg/injection, schedule: Q01DX011 (ip), vehicle: Klucel (hydroxypropylcellulose) (HPC), higher = longer survival): 112 % of control and 115 % of control
T/C (endpoint: median survival time, dose: 25.0 mg/kg/injection, schedule: Q01DX009 (ip), vehicle: Klucel (hydroxypropylcellulose) (HPC), higher = longer survival): 101 % of control
T/C (endpoint: median survival time, dose: 39.0 mg/kg/injection, schedule: Q01DX010 (ip), vehicle: Klucel (hydroxypropylcellulose) (HPC), higher = longer survival): 102 % of control and 104 % of control
T/C (endpoint: median survival time, dose: 39.0 mg/kg/injection, schedule: Q01DX011 (ip), vehicle: Klucel (hydroxypropylcellulose) (HPC), higher = longer survival): 108 % of control and 116 % of control
T/C (endpoint: median survival time, dose: 50.0 mg/kg/injection, schedule: Q01DX009 (ip), vehicle: Klucel (hydroxypropylcellulose) (HPC), higher = longer survival): 120 % of control
T/C (endpoint: median survival time, dose: 50.0 mg/kg/injection, schedule: Q01DX011 (ip), vehicle: steriod suspending solution, higher = longer survival): 105 % of control
T/C (endpoint: median survival time, dose: 65.0 mg/kg/injection, schedule: Q01DX010 (ip), vehicle: Klucel (hydroxypropylcellulose) (HPC), higher = longer survival): 112 % of control and 117 % of control
T/C (endpoint: median survival time, dose: 65.0 mg/kg/injection, schedule: Q01DX011 (ip), vehicle: Klucel (hydroxypropylcellulose) (HPC), higher = longer survival): 88 % of control and 93 % of control
T/C (endpoint: median survival time, dose: 100.0 mg/kg/injection, schedule: Q01DX009 (ip), vehicle: Klucel (hydroxypropylcellulose) (HPC), higher = longer survival): 123 % of control
T/C (endpoint: median survival time, dose: 100.0 mg/kg/injection, schedule: Q01DX011 (ip), vehicle: steriod suspending solution, higher = longer survival): 97 % of control
T/C (endpoint: median survival time, dose: 108.0 mg/kg/injection, schedule: Q01DX010 (ip), vehicle: Klucel (hydroxypropylcellulose) (HPC), higher = longer survival): 88 % of control and 93 % of control
T/C (endpoint: median survival time, dose: 108.0 mg/kg/injection, schedule: Q01DX011 (ip), vehicle: Klucel (hydroxypropylcellulose) (HPC), higher = longer survival): 75 % of control
T/C (endpoint: median survival time, dose: 180.0 mg/kg/injection, schedule: Q01DX010 (ip), vehicle: Klucel (hydroxypropylcellulose) (HPC), higher = longer survival): 79 % of control
T/C (endpoint: median survival time, dose: 180.0 mg/kg/injection, schedule: Q01DX011 (ip), vehicle: Klucel (hydroxypropylcellulose) (HPC), higher = longer survival): 63 % of control
T/C (endpoint: median survival time, dose: 200.0 mg/kg/injection, schedule: Q01DX011 (ip), vehicle: steriod suspending solution, higher = longer survival): 97 % of control
T/C (endpoint: median survival time, dose: 300.0 mg/kg/injection, schedule: Q01DX010 (ip), vehicle: Klucel (hydroxypropylcellulose) (HPC), higher = longer survival): 58 % of control
T/C (endpoint: median survival time, dose: 300.0 mg/kg/injection, schedule: Q01DX011 (ip), vehicle: Klucel (hydroxypropylcellulose) (HPC), higher = longer survival): 55 % of control
T/C (endpoint: median survival time, dose: 500.0 mg/kg/injection, schedule: Q01DX010 (ip), vehicle: Klucel (hydroxypropylcellulose) (HPC), higher = longer survival): 57 % of control
T/C (endpoint: median survival time, dose: 500.0 mg/kg/injection, schedule: Q01DX011 (ip), vehicle: Klucel (hydroxypropylcellulose) (HPC), higher = longer survival): 51 % of control

O=C1NC(O)CCN1C1OC(CO)C(O)C1O (stereo not given)
T/C (endpoint: median survival time, dose: 25.0 mg/kg/injection, schedule: Q01DX011 (ip), vehicle: water, higher = longer survival): 89 % of control
T/C (endpoint: median survival time, dose: 50.0 mg/kg/injection, schedule: Q01DX011 (ip), vehicle: water, higher = longer survival): 93 % of control
T/C (endpoint: median survival time, dose: 400.0 mg/kg/injection, schedule: Q01DX011 (ip), vehicle: water, higher = longer survival): 116 % of control

CCCCC/C(C)=N\Nc1ccccn1
T/C [1]: 91 % of control
T/C (endpoint: mean tumor weight (est.), dose: 25.0 mg/kg/injection, schedule: Q01DX011 (ip), vehicle: saline with Tween-80, higher = larger tumour): 88 % of control
T/C (endpoint: mean tumor weight (est.), dose: 50.0 mg/kg/injection, schedule: Q01DX011 (ip), vehicle: saline with Tween-80, higher = larger tumour): 80 % of control
T/C (endpoint: median survival time, dose: 25.0 mg/kg/injection, schedule: Q01DX011 (ip), vehicle: saline with Tween-80, higher = longer survival): 98 % of control
T/C (endpoint: median survival time, dose: 50.0 mg/kg/injection, schedule: Q01DX011 (ip), vehicle: saline with Tween-80, higher = longer survival): 98 % of control

CSc1ncnc2nc[nH]c12
T/C (endpoint: mean tumor weight (est.), dose: 1.56 mg/kg/injection, schedule: Q01DX011 (ip), vehicle: saline, higher = larger tumour): 79 % of control
T/C (endpoint: mean tumor weight (est.), dose: 3.12 mg/kg/injection, schedule: Q01DX011 (ip), vehicle: saline, higher = larger tumour): 79 % of control
T/C (endpoint: mean tumor weight (est.), dose: 6.25 mg/kg/injection, schedule: Q01DX011 (ip), vehicle: saline, higher = larger tumour): 85 % of control
T/C (endpoint: mean tumor weight (est.), dose: 12.5 mg/kg/injection, schedule: Q01DX011 (ip), vehicle: saline, higher = larger tumour): 78 % of control
T/C (endpoint: mean tumor weight (est.), dose: 25.0 mg/kg/injection, schedule: Q01DX011 (ip), vehicle: saline, higher = larger tumour): 80 % of control
T/C (endpoint: mean tumor weight (est.), dose: 50.0 mg/kg/injection, schedule: Q01DX011 (ip), vehicle: saline, higher = larger tumour): 89 % of control
T/C (endpoint: mean tumor weight (est.), dose: 100.0 mg/kg/injection, schedule: Q01DX011 (ip), vehicle: saline, higher = larger tumour): 62 % of control
T/C (endpoint: mean tumor weight, dose: 3.12 mg/kg/injection, schedule: Q01DX011 (ip), vehicle: other, higher = larger tumour): 96 % of control
T/C (endpoint: mean tumor weight, dose: 6.25 mg/kg/injection, schedule: Q01DX011 (ip), vehicle: other, higher = larger tumour): 79 % of control
T/C (endpoint: mean tumor weight, dose: 12.5 mg/kg/injection, schedule: Q01DX011 (ip), vehicle: other, higher = larger tumour): 73 % of control
T/C (endpoint: median survival time, dose: 1.56 mg/kg/injection, schedule: Q01DX011 (ip), vehicle: other, higher = longer survival): 104 % of control
T/C (endpoint: median survival time, dose: 1.56 mg/kg/injection, schedule: Q01DX011 (ip), vehicle: saline, higher = longer survival): 92 % of control
T/C (endpoint: median survival time, dose: 3.12 mg/kg/injection, schedule: Q01DX011 (ip), vehicle: saline, higher = longer survival): 92 % of control
T/C (endpoint: median survival time, dose: 6.25 mg/kg/injection, schedule: Q01DX011 (ip), vehicle: saline, higher = longer survival): 90 % of control
T/C (endpoint: median survival time, dose: 12.5 mg/kg/injection, schedule: Q01DX011 (ip), vehicle: other, higher = longer survival): 93 % of control and 100 % of control
T/C (endpoint: median survival time, dose: 12.5 mg/kg/injection, schedule: Q01DX011 (ip), vehicle: saline, higher = longer survival): 88 % of control
T/C [2]: 92 % of control
T/C (endpoint: median survival time, dose: 50.0 mg/kg/injection, schedule: Q01DX011 (ip), vehicle: other, higher = longer survival): 109 % of control
T/C [3]: 90 % of control
T/C [4]: 105 % of control

COc1cccc2c1C(=O)c1c(O)c3c(c(O)c1C2=O)C[C@@](O)(C(=O)COC(=O)Cc1cccc2ccccc12)C[C@@H]3OC1CC(N)C(O)C(C)O1 (stereo not given in full)
T/C (endpoint: median survival time, dose: 0.25 mg/kg/injection, schedule: Q01DX011 (ip), vehicle: other, higher = longer survival): 124 % of control
T/C (endpoint: median survival time, dose: 0.5 mg/kg/injection, schedule: Q01DX011 (ip), vehicle: other, higher = longer survival): 108 % of control
T/C (endpoint: median survival time, dose: 1.0 mg/kg/injection, schedule: Q01DX011 (ip), vehicle: other, higher = longer survival): 113 % of control

Cc1nn(CCO)c(C)c1N=[N+]([O-])c1c(C)nn(CCO)c1C
T/C (endpoint: median survival time, dose: 15.0 mg/kg/injection, schedule: Q02DX011 (ip), vehicle: saline with Tween-80, higher = longer survival): 105 % of control
T/C (endpoint: median survival time, dose: 30.0 mg/kg/injection, schedule: Q02DX011 (ip), vehicle: saline with Tween-80, higher = longer survival): 86 % of control
T/C (endpoint: median survival time, dose: 60.0 mg/kg/injection, schedule: Q02DX011 (ip), vehicle: saline with Tween-80, higher = longer survival): 97 % of control

Cc1nc2ccccc2nc1CBr
T/C (endpoint: mean tumor weight (est.), dose: 3.2 mg/kg/injection, schedule: Q01DX011 (ip), vehicle: saline with Tween-80, higher = larger tumour): 64 % of control
T/C (endpoint: mean tumor weight (est.), dose: 6.3 mg/kg/injection, schedule: Q01DX011 (ip), vehicle: saline with Tween-80, higher = larger tumour): 80 % of control
T/C [1]: 56 % of control
T/C (endpoint: median survival time, dose: 3.2 mg/kg/injection, schedule: Q01DX011 (ip), vehicle: saline with Tween-80, higher = longer survival): 96 % of control
T/C (endpoint: median survival time, dose: 6.3 mg/kg/injection, schedule: Q01DX011 (ip), vehicle: saline with Tween-80, higher = longer survival): 101 % of control
T/C (endpoint: median survival time, dose: 12.5 mg/kg/injection, schedule: Q01DX011 (ip), vehicle: saline with Tween-80, higher = longer survival): 88 % of control

O=C1CCCN1.O=C1CCCN1.[Br][Co][Br]
T/C (endpoint: mean tumor weight, dose: 37.5 mg/kg/injection, schedule: Q01DX011 (ip), vehicle: water, higher = larger tumour): 84 % of control
T/C (endpoint: mean tumor weight, dose: 75.0 mg/kg/injection, schedule: Q01DX011 (ip), vehicle: water, higher = larger tumour): 65 % of control
T/C (endpoint: median survival time, dose: 37.5 mg/kg/injection, schedule: Q01DX011 (ip), vehicle: water, higher = longer survival): 95 % of control
T/C (endpoint: median survival time, dose: 75.0 mg/kg/injection, schedule: Q01DX011 (ip), vehicle: water, higher = longer survival): 110 % of control

O=c1c(O)c(-c2ccc(O)c(O)c2)oc2cc(O)cc(O)c12
T/C (endpoint: median survival time, dose: 200.0 mg/kg/injection, schedule: Q02DX009 (ip), vehicle: saline, higher = longer survival): 102 % of control

C=C(C(=O)OC1CC2CCC(C1)N2C)c1ccccc1 (stereo not given)
T/C (endpoint: median survival time, dose: 7.5 mg/kg/injection, schedule: Q01DX011 (ip), vehicle: saline, higher = longer survival): 119 % of control

N#CSCc1ccc(Cl)cc1Cl
T/C (endpoint: mean tumor weight, dose: 25.0 mg/kg/injection, schedule: Q01DX011 (ip), vehicle: saline, higher = larger tumour): 75 % of control
T/C (endpoint: mean tumor weight, dose: 50.0 mg/kg/injection, schedule: Q01DX011 (ip), vehicle: saline, higher = larger tumour): 56 % of control
T/C (endpoint: mean tumor weight, dose: 100.0 mg/kg/injection, schedule: Q01DX011 (ip), vehicle: saline, higher = larger tumour): 25 % of control
T/C (endpoint: mean tumor weight, dose: 200.0 mg/kg/injection, schedule: Q01DX011 (ip), vehicle: saline, higher = larger tumour): 47 % of control
T/C [2]: 86 % of control
T/C [3]: 95 % of control
T/C [4]: 119 % of control
T/C (endpoint: median survival time, dose: 200.0 mg/kg/injection, schedule: Q01DX011 (ip), vehicle: saline, higher = longer survival): 106 % of control

CCCCCCCCCCCC(c1ccccc1)[N+](C)(C)C (stereo not given)
T/C (endpoint: mean tumor weight (est.), dose: 2.0 mg/kg/injection, schedule: Q01DX011 (ip), vehicle: saline, higher = larger tumour): 89 % of control
T/C (endpoint: mean tumor weight (est.), dose: 4.0 mg/kg/injection, schedule: Q01DX011 (ip), vehicle: saline, higher = larger tumour): 76 % of control
T/C (endpoint: median survival time, dose: 2.0 mg/kg/injection, schedule: Q01DX011 (ip), vehicle: saline, higher = longer survival): 104 % of control
T/C (endpoint: median survival time, dose: 4.0 mg/kg/injection, schedule: Q01DX011 (ip), vehicle: saline, higher = longer survival): 108 % of control

Source: PubChem BioAssay AID272 (DTP/NCI, 2004)
